Measurements from patent USRE50663E1, “Heterocycle derivatives as pesticides” (Bayer Aktiengesellschaft, priority 2017, dated 2025).

Columns and labels:
Assay type in all cases: in vivo
[1] = tested on: adult cat fleas (Ctenocephalides felis); experiment: Ctenocephalides felis oral test; conditions: 48 h, 100 ppm in citrated cattle blood, after 2 days, read-out: efficacy (kill)
Protocol: Solvent: dimethyl sulfoxide
To produce a suitable active compound formulation, 10 mg of active compound are mixed with 0.5 ml of dimethyl sulfoxide. Dilution with citrated cattle blood gives the desired concentration.
About 20 unfed adult cat fleas (Ctenocephalides felis) are placed into a chamber which is closed at the top and bottom with gauze. A metal cylinder whose bottom end is closed with parafilm is placed onto the chamber. The cylinder contains the blood/active compound formulation, which can be imbibed by the fleas through the parafilm membrane.
After 2 days, the kill in % is determined. 100% means that all of the fleas have been killed; 0% means that none of the fleas have been killed.

[2] = tested on: green peach aphid (Myzus persicae); experiment: Myzus persicae spray test; conditions: foliar, 120 h, 100 g/ha, after 5 days, Chinese cabbage leaf discs, read-out: efficacy
Protocol: Solvent: 78 parts by weight of acetone • • 1.5 parts by weight of dimethylformamide
(§1) Emulsifier: alkylaryl polyglycol ether
(§2) To produce a suitable active compound formulation, 1 part by weight of active compound is dissolved with the specified parts by weight of solvent and made up to the desired concentration with water containing an emulsifier concentration of 1000 ppm. To produce further test concentrations, the formulation is diluted with emulsifier-containing water.
Discs of Chinese cabbage leaves (Brassica pekinensis) infested by all stages of the green peach aphid (Myzus persicae) are sprayed with an active compound formulation of the desired concentration.
After 5 days, the efficacy in % is determined. 100% means that all the aphids have been killed; 0% means that no aphids have been killed.

[3] = tested on: larvae of the mustard beetle (Phaedon cochleariae); experiment: Phaedon cochleariae spray test; conditions: foliar, 168 h, 100 g/ha, after 7 days, Chinese cabbage leaf discs, read-out: efficacy
Protocol: (§3) Solvent: 78.0 parts by weight of acetone • • 1.5 parts by weight of dimethylformamide
as §1, §2
Discs of Chinese cabbage leaves (Brassica pekinensis) are sprayed with an active compound formulation of the desired concentration and, after drying, populated with larvae of the mustard beetle (Phaedon cochleariae).
After 7 days, the efficacy in % is determined. 100% means that all the beetle larvae have been killed; 0% means that no beetle larvae have been killed.

[4] = tested on: caterpillars of the fall armyworm (Spodoptera frugiperda); experiment: Spodoptera frugiperda spray test; conditions: foliar, 168 h, 100 g/ha, after 7 days, maize leaf discs, read-out: efficacy
Protocol: as §3, §1, §2
Leaf discs of maize (Zea mays) are sprayed with an active compound formulation of the desired concentration and, after drying, populated with caterpillars of the fall armyworm (Spodoptera frugiperda).
After 7 days, the efficacy in % is determined. 100% means that all the caterpillars have been killed; 0% means that no caterpillar has been killed.

[5] = tested on: greenhouse red spider mite (Tetranychus urticae); experiment: Tetranychus urticae spray test, OP-resistant; conditions: 20 g/ha, after 6 days, bean leaf discs
Protocol: as §3, §1, §2
Discs of bean leaves (Phaseolus vulgaris) infested with all stages of the greenhouse red spider mite (Tetranychus urticae) are sprayed with an active compound formulation of the desired concentration.
After 6 days, the efficacy in % is determined. 100% means that all the spider mites have been killed; 0% means that no spider mites have been killed.

[6] = tested on: larvae of the mustard beetle (Phaedon cochleariae); experiment: Comparative Phaedon cochleariae spray test (PHAECO); conditions: 168 h, 7 dat, read-out: % efficacy
Protocol: (§4) Solvent: 14 parts by weight of dimethylformamide
as §1
as §2, with “water. If the addition of ammonium salts or/and penetrants is required, these are each added in a concentration of 1000 ppm to the formulation solution.” for “water.”
Cabbage leaves (Brassica oleracea) are sprayed with an active ingredient formulation of the desired concentration and populated with larvae of the mustard beetle (Phaedon cochleariae).
After the desired time, the kill in % is determined. 100% means that all the beetle larvae have been killed; 0% means that no beetle larvae have been killed.

[7] = tested on: larvae of the diamondback moth (Plutella xylostella); experiment: Comparative Plutella xylostella spray test (PLUTMA); conditions: 168 h, 7 dat, read-out: % efficacy
Protocol: as §4, §1
as §2, with “water. If the addition of ammonium salts or/and penetrants is required, these are each added in a concentration of 1000 ppm to the formulation solution.” for “water.”
Cabbage leaves (Brassica oleracea) are sprayed with an active ingredient formulation of the desired concentration and infected with larvae of the diamondback moth (Plutella xylostella).
(§5) After the desired time, the kill in % is determined. 100% means that all caterpillars have been killed; 0% means that none of the caterpillars have been killed.

[8] = tested on: caterpillars of the armyworm (Spodoptera frugiperda); experiment: Comparative Spodoptera frugiperda spray test (SPODFR); conditions: 168 h, 7 dat, read-out: % efficacy
Protocol: as §4, §1
as §2, with “water. If the addition of ammonium salts or/and penetrants is required, these are each added in a concentration of 1000 ppm to the formulation solution.” for “water.”
Cotton leaves (Gossypium hirsutum) are sprayed with an active ingredient formulation of the desired concentration and populated with caterpillars of the armyworm (Spodoptera frugiperda).
as §5

[9] = tested on: caterpillars of the armyworm (Spodoptera frugiperda); experiment: Comparative Spodoptera frugiperda drench test (SPODFR D); conditions: soil, 336 h, 14 dat, read-out: % efficacy
Protocol: (§6) Solvent: 7 parts by weight of dimethylformamide
(§7) Emulsifier: 2 parts by weight of alkylaryl polyglycol ether
(§8) To produce a suitable active ingredient formulation, 1 part by weight of active ingredient is mixed with the specified amounts of solvent and emulsifier, and the concentrate is diluted with water to the desired concentration, it being necessary to take into account the volume of soil which is drenched. It should be ensured that a concentration of 40 ppm of emulsifier in the soil is not exceeded. To produce further test concentrations, water is used for dilution.
Maize plants (Zea mays) in pots of soil are watered with an active ingredient formulation of the desired concentration and infected with caterpillars of the armyworm (Spodoptera frugiperda).
as §5

[10] = tested on: caterpillars of the cotton bollworm (Heliothis armigera); experiment: Comparative Heliothis armigera spray test (HELIAR); conditions: Helicoverpa armigera, 168 h, 7 dat, read-out: % efficacy
Protocol: as §4, §1
as §2, with “water. If the addition of ammonium salts or/and penetrants is required, these are each added in a concentration of 1000 ppm to the formulation solution.” for “water.”
Cotton plants (Gossypium hirsutum) are sprayed with an active compound formulation of the desired concentration and, after drying, populated with caterpillars of the cotton bollworm (Heliothis armigera).
as §5

[11] = tested on: green peach aphid (Myzus persicae); experiment: Comparative Myzus persicae spray test (MYZUPE); conditions: 144 h, 6 dat, read-out: % efficacy
Protocol: as §4, §1
as §2, with “water. If the addition of ammonium salts or/and penetrants is required, these are each added in a concentration of 1000 ppm to the formulation solution.” for “water.”
Bell pepper plants (Capsicum annuum) severely infested with the green peach aphid (Myzus persicae) are treated by spraying with the active ingredient formulation in the desired concentration.
After the desired time, the kill in % is determined. 100% means that all the animals have been killed; 0% means that no animals have been killed.

[12] = tested on: green peach aphid (Myzus persicae); experiment: Comparative Myzus persicae drench test (MYZUPE D); conditions: soil, 240 h, 10 dat, read-out: % efficacy
Protocol: as §6, §7, §8
Savoy cabbage (Brassica oleracea) in pots with soil and infested by all stages of the green peach aphid (Myzus persicae) is watered with an active ingredient formulation of the desired concentration.
After the desired period of time, the efficacy in % is determined. 100% means that all the aphids have been killed; 0% means that no aphids have been killed.

[13] = tested on: L2 larvae of the banded cucumber beetle (Diabrotica balteata); experiment: Comparative Diabrotica balteata drench test (DIABBA D); conditions: soil, 192 h, 8 dat, read-out: % efficacy
Protocol: as §6, §7, §8
In each case 5 maize corns (Zea mays) are sown into pots filled with earth, and the next day the pots are watered with the active compound preparation of the desired concentration. After one day, about 25 L2 larvae of the banded cucumber beetle (Diabrotica balteata) are added.
After 8 days, the efficacy in % is determined. 100% means that all 5 plants have germinated and grown; 0% means that none of the plants has emerged.

SMILES	pest or weed control at 100 ppm [1] [%]	pest or weed control at 100 g/ha [2] [%]	pest or weed control at 100 g/ha [3] [%]	pest or weed control at 100 g/ha [4] [%]	efficacy [5] [%]	Emax at 0.8 ppm ([6]; 0.8 ppm) [%]	Emax at 4 ppm ([6]; 4 ppm) [%]	Emax at 0.16 ppm [7] [%]	Emax at 0.16 ppm [8] [%]	Emax at 0.16 ppm [9] [%]	Emax at 0.16 ppm [10] [%]	Emax at 0.8 ppm [11] [%]	Emax at 0.8 ppm [12] [%]	Emax at 0.8 ppm ([13]; 0.8 ppm) [%]	Emax at 4 ppm ([13]; 4 ppm) [%]
CCS(=O)(=O)c1c(-c2nc3cc(C(F)(F)F)cnc3n2C)nc2cc(C(F)C3CC3)ccn12 (stereo not drawn) [Example I-22]	100	90	100	100	90	–	–	–	–	–	–	–	–	–	–
CCS(=O)(=O)c1c(-c2nc3cc(C(F)(F)F)cnc3n2C)nc2cc(C3CC3)ccn12 [known from WO 2016/162318, reference compound]	–	–	–	–	–	0	60	45	65	40	10	0	0	30	70
